{"source": "patent US8846393B2", "about": "“Methods of improving stem cell homing and engraftment” (Gamida-Cell Ltd., priority 2005, dated 2014)", "format_in_all_cases": "cell-based, human", "key": {"[1]": {"tested_on": "CD26/dipeptidylpeptidase IV", "experiment": "FACS analysis of CD26 membranal expression on CD34+ cells after short-term incubation", "procedure": "Cells were obtained from umbilical cord blood after normal full-term delivery (informed consent was given). Samples were collected and frozen according to Rubinstein et al. [Rubinstein et al. Proc Natl Acad Sci USA. 1995; 92 (22):10119-10122.] within 24 h postpartum. Prior to use, the cells were thawed in Dextran buffer (Sigma, St. Louis, Mo., USA) containing 2.5% human serum albumin (HAS, Bayer Corp. Elkhart, Ind., USA), layered on a Ficoll-Hypaque gradient (1.077 g/mL; Sigma), and centrifuged at 800×g for 30 min. The mononuclear cells in the interface layer were collected and washed three times in phosphate-buffered saline (PBS, Biological Industries) containing 0.5% HSA. To purify the CD34+ cells, the mononuclear cell fraction was subjected to two cycles of immunomagnetic bead separation, using a “MiniMACS CD34 progenitor cell isolation kit” (Miltenyi Biotec Bergisch, Gladbach, Germany), according to manufacturer's instructions. The purity of the CD34+ population thus obtained was 95-98%, as evaluated by flow cytometry. Percentages of progenitor cells positive for CD26 were determined by staining of CD34+ cells with anti-CD26 FITC purchased from Becton Dickinson. […] Freshly purified CD34+ cells were FACS analyzed for the expression of CD26 (T-0) then incubated±Nicotinamide 5 mM for 20 hours (T-20 hours) and FACS analyzed again."}, "CD34+ cells": {"tested_on": "CD34+ cells", "experiment": "In vitro transwell migration assay, CXCL12-induced", "details": "CXCL12 100 ng/ml, 4 hours, CD34+ cells after 3-week culture with cytokines+NA, compared to cytokines alone or non-cultured cells", "procedure": "FIG. 2 is a histogram showing the effect of nicotinamide on in-vitro migration of hematopoietic cells. CXCL12 (100 ng/ml)-induced transwell migration of the purified CD34+ cells either before (non-cultured) or after 3-week culture with cytokines and nicotinamide (cytokines+NA) or cytokines alone (cytokines) (n=3, *p<0.02, **p=0.05) was measured as described hereinbelow. Note the enhanced migration of cells cultured in the presence of nicotinamide; Purified CD34+ cells were cultured in culture bags (American Fluoroseal Co., Gaithersburg, Md.) at 1×10^4 cells/ml in MEMα medium, 10% fetal calf serum (FCS) and cytokines: Thrombopoietin (TPO), interleukin-6 (IL-6), FLT-3 ligand and stem cell factor (SCF), each at a final concentration of 50 ng/ml (Perpo Tech, Inc., Rocky Hill, N.J.), with or without 5 mM nicotinamide (NA) (Sigma Aldrich, Milwaukee, Wis.) and incubated at 37° C. in a humidified atmosphere of 5% CO2 in air. […] Until week 3, the cultures were topped weekly with the same volume of fresh medium and then weekly demi-depopulated. Cell counting, colony forming unit (CFUc) assay and immunophenotype analysis were performed as described hereinbelow. […] After 4 hours, cells were collected from both chambers and counted by flow cytometry (FACSsort, Becton Dickinson and Co, San Jose, Calif., USA). […]"}, "VLA-4": {"tested_on": "VLA-4", "experiment": "Shear flow experiments, VLA4-mediated binding to immobilized VCAM-1", "details": "CD34+ cells cultured with cytokines and nicotinamide", "procedure": "FIG. 3 is a graph showing the effect of nicotinamide on VLA4-mediated binding of cells to immobilized adhesion molecules under shear flow. CD34+ cells cultured as described in FIGS. 1 and 2 hereinabove were assayed for capture and arrest under shear stress, on immobilized VCAM-1 adsorbed as 10 μl dots on polystyrene. Cell settling events, and arrest were analyzed under perfusion (shear stress) by video photography. Assayed cell populations were cells before culture (non-cultured, open circles), cells cultured with cytokines, as described in FIG. 2 (cultured, closed circles), and cells cultured with cytokines and nicotinamide (cultured+NA, closed triangles). […]\nSoluble purified seven-domain human VCAM-1, sVCAM-1 was mixed in coating medium (PBS buffered with 20 mM sodium bicarbonate pH, 8.5) with a fixed amount of carrier (2 μg/ml HSA) and adsorbed as 10-μl spots on polystyrene plates (Becton Dickinson and Co, San Jose, Calif., USA) for 2 hours at 37° C., alone or with the indicated amounts of intact or heat-inactivated chemokines. […] VCAM-1 site densities were assessed using ^125I-labeled anti-VCAM-1 mAb, 4B9. […] The entire duration of cell perfusions were recorded on a videotape with a long integration LIS-700 CCD video camera (Applitech Rigicam, Israel) and a Time Lapse SVHS-Video recorder (AG-6730; Panasonic, Japan). […]"}}, "note": "Where “and” joins values, the source holds several entries; their conditions need not be identical. Identical values can stand only once.", "data": [{"smiles": "NC(=O)c1cccnc1", "note": "[nicotinamide]", "values": [{"measurement": "reduction of CD26 expression", "setting": "[1]; 20 hours with Nicotinamide 5 mM, compared to cells without Nicotinamide and to freshly purified CD34+ cells (T-0)", "result": "2-3 fold"}, {"measurement": "CD26+ cells (%)", "setting": "[1]; freshly purified CD34+ cells incubated with Nicotinamide 5 mM for 20 hours (T-20)", "result": "2.7% and 6%"}, {"measurement": "CXCL12-induced migration", "setting": "CD34+ cells", "result": "significantly higher"}, {"measurement": "percentage of initially settled cells resistant to removal by shear stress", "setting": "VLA-4", "result": "significantly enhanced"}]}]}
